Test results taken from ChEMBL document CHEMBL4842376, “Design, synthesis and biological evaluation of novel hybrids targeting mTOR and HDACs for potential treatment of hepatocellular carcinoma” (Eur J Med Chem, 2021).

Key:
HepG2 = assay: Antiproliferative activity against human HepG2 cells assessed as inhibition of cell growth measured after 72 hrs by MTT assay; assay type: functional, cell-based; settings: HepG2, 72 h
MDA-MB-231 = assay: cells; assay type: functional, cell-based; settings: Homo sapiens, MDA-MB-231, 72 h
Description: Antiproliferative activity against human MDA-MB-231 cells assessed as inhibition of cell growth measured after 72 hrs by MTT assay

HCT-116 = assay: cells; assay type: functional, cell-based; settings: Homo sapiens, HCT-116, 72 h
Description: Antiproliferative activity against human HCT-116 cells assessed as inhibition of cell growth measured after 72 hrs by MTT assay

MCF7 = assay: cells; assay type: functional, cell-based; settings: Homo sapiens, MCF7, 72 h
Description: Antiproliferative activity against human MCF7 cells assessed as inhibition of cell growth measured after 72 hrs by MTT assay

HeLa = assay: cells; assay type: functional, cell-based; settings: Homo sapiens, 72 h
Description: Antiproliferative activity against human HeLa cells assessed as inhibition of cell growth measured after 72 hrs by MTT assay

CNE-2 = assay: cells; assay type: functional, cell-based; settings: Homo sapiens, CNE-2, 72 h
Description: Antiproliferative activity against human CNE-2 cells assessed as inhibition of cell growth measured after 72 hrs by MTT assay

A549 = assay: cells; assay type: functional, cell-based; settings: Homo sapiens, A549, 72 h
Description: Antiproliferative activity against human A549 cells assessed as inhibition of cell growth measured after 72 hrs by MTT assay

Huh-7 = assay: cells; assay type: functional, cell-based; settings: Homo sapiens, Huh-7, 72 h
Description: Antiproliferative activity against human Huh-7 cells assessed as inhibition of cell growth measured after 72 hrs by MTT assay

SNU-423 = assay: Antiproliferative activity against human SNU-423 cells assessed as inhibition of cell growth measured after 72 hrs by MTT assay; assay type: functional, cell-based; settings: SNU-423, 72 h
Bel-7402 = assay: Antiproliferative activity against human Bel-7402 cells assessed as inhibition of cell growth measured after 72 hrs by MTT assay; assay type: functional, cell-based; settings: Bel-7402, 72 h
Hep 3B2 = assay: cells; assay type: functional, cell-based; settings: Homo sapiens, Hep3B, 72 h
Description: Antiproliferative activity against human Hep3B cells assessed as inhibition of cell growth measured after 72 hrs by MTT assay

[1] = target: T1, Protein deacetylase HDAC6 (Homo sapiens) (UniProt Q9UBN7); assay: Inhibition of HDAC6 (unknown origin) at 1 uM using Ac-peptide as a substrate pretreated for 15 mins followed by substrate addition relative to control
T1 sequence (whole entry): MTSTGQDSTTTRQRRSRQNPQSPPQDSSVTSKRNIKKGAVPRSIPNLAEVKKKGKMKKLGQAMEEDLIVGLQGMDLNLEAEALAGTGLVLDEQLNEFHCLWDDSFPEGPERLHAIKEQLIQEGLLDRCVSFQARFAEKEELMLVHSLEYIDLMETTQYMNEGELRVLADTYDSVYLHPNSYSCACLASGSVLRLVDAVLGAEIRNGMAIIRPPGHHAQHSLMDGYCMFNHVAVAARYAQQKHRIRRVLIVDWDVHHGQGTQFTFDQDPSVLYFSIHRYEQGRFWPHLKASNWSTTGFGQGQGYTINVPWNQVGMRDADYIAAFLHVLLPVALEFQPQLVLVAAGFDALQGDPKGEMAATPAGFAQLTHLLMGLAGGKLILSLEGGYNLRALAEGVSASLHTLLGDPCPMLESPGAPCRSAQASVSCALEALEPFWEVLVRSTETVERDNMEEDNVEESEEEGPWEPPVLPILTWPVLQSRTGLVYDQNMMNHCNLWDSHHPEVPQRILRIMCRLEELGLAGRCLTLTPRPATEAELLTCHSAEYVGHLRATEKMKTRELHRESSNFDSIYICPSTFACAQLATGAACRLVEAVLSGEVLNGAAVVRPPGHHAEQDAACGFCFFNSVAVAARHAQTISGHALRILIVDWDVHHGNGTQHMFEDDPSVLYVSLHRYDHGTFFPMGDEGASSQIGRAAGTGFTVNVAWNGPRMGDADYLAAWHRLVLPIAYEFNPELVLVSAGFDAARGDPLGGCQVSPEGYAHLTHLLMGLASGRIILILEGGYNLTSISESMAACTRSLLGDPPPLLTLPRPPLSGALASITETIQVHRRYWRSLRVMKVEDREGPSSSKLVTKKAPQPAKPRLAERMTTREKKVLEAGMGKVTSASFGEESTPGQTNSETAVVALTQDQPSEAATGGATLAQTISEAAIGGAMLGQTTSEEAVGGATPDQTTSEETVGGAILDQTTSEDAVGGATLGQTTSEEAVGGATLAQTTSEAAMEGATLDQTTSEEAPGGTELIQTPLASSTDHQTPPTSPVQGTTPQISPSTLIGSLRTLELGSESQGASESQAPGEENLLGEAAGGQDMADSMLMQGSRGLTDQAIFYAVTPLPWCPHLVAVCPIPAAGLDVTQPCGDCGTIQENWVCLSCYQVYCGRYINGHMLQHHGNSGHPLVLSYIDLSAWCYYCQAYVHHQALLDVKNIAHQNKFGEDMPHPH

PLC-PRF-5 = assay: Antiproliferative activity against human PLC-PRF-5 cells assessed as inhibition of cell growth measured after 72 hrs by MTT assay; assay type: functional, cell-based; settings: PLC-PRF-5, 72 h
[2] = target: Serine/threonine-protein kinase mTOR (Homo sapiens, UniProt P42345); assay: Inhibition of mTOR (unknown origin) at 1 uM using U-Light-4E-BP1 peptide as a substrate in the presence of ATP incubated for 30 mins by Lance ultra assay relative to control
SK-HEP1 = assay: cells; assay type: functional, cell-based; settings: Homo sapiens, SK-HEP1, 72 h
Description: Antiproliferative activity against human SK-HEP1 cells assessed as inhibition of cell growth measured after 72 hrs by MTT assay

[3] = Metabolic stability in rat liver microsomes assessed as parent compound remaining at 10 ug/ml measured after 1 hr in the presence of NADPH by HPLC analysis; assay type: ADME, Microsome; settings: microsomes, 1 h, at 10 µg/mL
L02 = assay: cells; assay type: ADME, cell-based; settings: Homo sapiens, L02, 72 h
Description: Cytotoxicity against human L02 cells assessed as reduction in cell viability measured after 72 hrs by MTT assay

Compound	IC50 (HepG2) [µM]	IC50 (MDA-MB-231) [µM]	IC50 (HCT-116) [µM]	IC50 (MCF7) [µM]	IC50 (HeLa) [µM]	IC50 (CNE-2) [µM]	IC50 (A549) [µM]	IC50 (Huh-7) [µM]	IC50 (SNU-423) [µM]	IC50 (Bel-7402) [µM]	IC50 (Hep 3B2) [µM]	inhibition [1] [%]	IC50 (PLC-PRF-5) [µM]	inhibition [2] [%]	IC50 (SK-HEP1) [µM]	Stabilty [3]	IC50 (L02) [nM]
Nc1nc2cc(-c3nn(CC(=O)NO)c4ncnc(N)c34)ccc2o1	> 150	6.31	11.4	> 100	> 150	12.2	27.7	–	–	–	–	–	–	–	–	–	–
Nc1nc2cc(-c3nn(CCCCCCCCC(=O)NO)c4ncnc(N)c34)ccc2o1	2.61	30.3	2.98	42.1	10.2	3.24	13.2	1.47	4.94	> 100	8.89	99	24	99.3	> 100	–	–
Nc1nc2cc(-c3nn(CCC(=O)NO)c4ncnc(N)c34)ccc2o1	> 150	> 50	> 100	> 100	> 150	> 150	> 150	–	–	–	–	–	–	–	–	–	–
Nc1nc2cc(-c3nn(CCCCC(=O)NO)c4ncnc(N)c34)ccc2o1	2.1	21.2	34	14	32.2	> 50	> 100	9.22	3.03	2.4	33.7	95.1	29.6	99.4	6.4	–	–
Nc1nc2cc(-c3nn(CCCCCC(=O)NO)c4ncnc(N)c34)ccc2o1	1.99	19	21.5	12.4	15.4	37.6	> 100	9.91	12.6	2.03	34.2	97.8	> 50	100	3.08	–	–
Nc1nc2cc(-c3nn(CCCC(=O)NO)c4ncnc(N)c34)ccc2o1	> 50	19.5	19.6	> 50	> 150	> 50	> 100	–	–	–	–	–	–	–	–	–	–
Nc1ncnc2c1c(-c1cnc3[nH]ccc3c1)nn2CCCCCCCC(=O)NO	5.63	15.8	6.76	7.57	29.1	8.99	51	23.5	5.4	17.4	16.3	100	35.9	98.7	3.95	–	–
Nc1nc2cc(-c3nn(CCCCCCCCCC(=O)NO)c4ncnc(N)c34)ccc2o1	28.6	> 50	23.1	> 50	> 50	36.8	> 50	41.2	> 50	> 50	28.8	98.2	> 100	92.4	14.1	–	–
O=C(CCCCCCC(=O)Nc1ccccc1)NO [VORINOSTAT]	–	–	–	–	–	–	–	–	0.079	27.4	–	–	2.22	–	–	Stable	–
Nc1ncnc2c1c(-c1cnc3[nH]ccc3c1)nn2CCCCCC(=O)NO	12.9	> 100	63.7	> 150	> 150	> 50	> 150	> 100	–	–	> 50	–	> 150	–	> 150	–	–
Nc1ncnc2c1c(-c1cnc3[nH]ccc3c1)nn2CCCC(=O)NO	> 50	> 150	> 150	> 150	–	> 150	> 150	–	–	–	–	–	–	–	–	–	–
Nc1ncnc2c1c(-c1cnc3[nH]ccc3c1)nn2CCCCC(=O)NO	36.6	> 50	> 150	> 150	> 150	> 150	> 150	–	–	–	–	–	–	–	–	–	–
Nc1ncnc2c1c(-c1cnc3[nH]ccc3c1)nn2CCC(=O)NO	> 150	> 150	> 150	> 150	–	> 150	> 150	–	–	–	–	–	–	–	–	–	–
Nc1ncnc2c1c(-c1cnc3[nH]ccc3c1)nn2CCCCCCC(=O)NO	10.3	37.7	9.86	19.8	22	19.5	50	50.9	7.5	30.8	26.2	99.1	> 50	98.7	14.7	–	–
Nc1ncnc2c1c(-c1cnc3[nH]ccc3c1)nn2CC(=O)NO	> 150	> 150	> 150	> 150	–	> 150	> 150	–	–	–	–	–	–	–	–	–	–
Nc1ncnc2c1c(-c1cnc3[nH]ccc3c1)nn2CCCCCCCCCC(=O)NO	11.7	10.1	18.7	23.2	7.56	2.2	6.55	10.1	8.16	42.1	17.2	98.3	34.2	97.6	23.5	–	–
CC(C)n1nc(-c2ccc3oc(N)nc3c2)c2c(N)ncnc21 [SAPANISERTIB]	2.13	0.031	0.048	0.053	0.036	0.101	0.174	0.007	0.015	> 100	4.43	–	6.63	–	0.008	Stable	280
